# Biological target: T1, ligand binding domain of human RORγ (A262-S507) (Homo sapiens, UniProt P51449)
# T1 construct: made in house; host or cells: E. coli
# T1 sequence (P51449 262-507): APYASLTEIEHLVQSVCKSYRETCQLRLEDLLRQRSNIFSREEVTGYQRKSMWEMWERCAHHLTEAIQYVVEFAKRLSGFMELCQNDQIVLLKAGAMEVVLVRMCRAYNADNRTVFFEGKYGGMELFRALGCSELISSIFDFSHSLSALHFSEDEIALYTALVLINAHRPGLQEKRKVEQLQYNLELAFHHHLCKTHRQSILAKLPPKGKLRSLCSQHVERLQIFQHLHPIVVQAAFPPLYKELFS
# Experiment: General RORγ SPA binding assay (competition with [3H]25-hydroxycholesterol)
# Conditions: RORγ SPA binding assay, inhibition of [3H]25-hydroxycholesterol binding; read-out: IC50
# Method in brief: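 Scintillation counts from copper His-tag SPA beads (4 mg/mL, 30 min) gave percent inhibition of radioligand binding, from which IC50 values are derived. The E. coli-expressed His-tagged domain (50 nM) is first exposed to compound for 15 min at room temperature in PBS containing 0.5% fatty acid free BSA.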
row,IC50 [nM],Compound
1,4.2,"Cc1nc(N)nc(C2CCN(C(=O)Nc3c(F)cccc3F)CC2)c1C(O)COc1cccc(C(F)(F)F)n1 (centres unmarked) [Compound N9, 4-[2-Amino-5-(1-hydroxy-2-{[6-(trifluoromethyl)pyridin-2-yl]oxy}ethyl)-6-methylpyrimidin-4-yl]-N-(2,6-difluorophenyl)piperidine-1-carboxamide]"
2,20.9,"CC(=O)Nc1nc(C)c(C(O)COc2cccc(C(F)(F)F)n2)c(C2CCN(C(=O)Nc3c(F)cccc3F)CC2)n1 (centres unmarked) [Compound N10, 4-[2-(Acetylamino)-5-(1-hydroxy-2-{1-[6-(trifluoromethyl)pyridin-2-yl]oxy}ethyl)-6-methylpyrimidin-4-yl]-N-(2,6-difluorophenyl)piperidine-1-carboxamide]"
3,37,"CC(=O)Nc1nc(C)c(C(COc2cccc(C(F)(F)F)n2)OC(C)=O)c(C2CCN(C(=O)Nc3c(F)cccc3F)CC2)n1 (centres unmarked) [Compound N11, 1-[2-(Acetylamino)-4-(1-{[(2,6-difluorophenyl)amino]carbonyl}piperidin-4-yl)-6-methylpyrimidin-5-yl]-2-{[6-(trifluoromethyl)pyridin-2-yl]oxy}ethyl acetate]"
4,69.5,"Nc1ncc(C(O)CNc2ccnc(C(F)(F)F)n2)c(C2CCN(C(=O)Nc3c(F)cccc3F)CC2)n1 (centres unmarked) [Compound N12, 4-[2-amino-5-(1-hydroxy-2-{[2-(trifluoromethyl)pyrimidin-4-yl]amino}ethyl)pyrimidin-4-yl]-N-(2,6-difluorophenyl)piperidine-1-carboxamide]"
5,4.1,"Cc1ncc(C(F)(F)COc2cccc(C(F)(F)F)n2)c(C2CCN(C(=O)Nc3c(F)cccc3F)CC2)n1 [Compound N14, N-(2,6-Difluorophenyl)-4-[5-(1,1-difluoro-2-{[6-(trifluoromethyl)pyridin-2-yl]oxy}ethyl)-2-methylpyrimidin-4-yl]piperidine-1-carboxamide]"
6,7,"Cc1ncc(C(F)COc2cccc(C(F)(F)F)n2)c(C2CCN(C(=O)Nc3c(F)cccc3F)CC2)n1 (centres unmarked) [Compound N22, N-(2,6-Difluorophenyl)-4-[5-(1-fluoro-2-{[6-(trifluoromethyl)pyridin-2-yl]oxy}ethyl)-2-methylpyrimidin-4-yl]piperidine-1-carboxamide]"
7,12.3,"Cc1ncc(C(N)COc2cccc(C(F)(F)F)n2)c(C2CCN(C(=O)Nc3c(F)cccc3F)CC2)n1 (centres unmarked) [Compound N23, 4-[5-(1-Amino-2-{[6-(trifluoromethyl)pyridin-2-yl]oxy}ethyl)-2-methylpyrimidin-4-yl]-N-(2,6-difluorophenyl)piperidine-1-carboxamide]"
8,9.3,"Nc1ncc(C(N)COc2cccc(C(F)(F)F)n2)c(C2CCN(C(=O)Nc3c(F)cccc3F)CC2)n1 (centres unmarked) [Compound N24, 4-[2-Amino-5-(1-amino-2-{[6-(trifluoromethyl)pyridin-2-yl]oxy}ethyl)pyrimidin-4-yl]-N-(2,6-difluorophenyl)piperidine-1-carboxamide]"
9,141,"Cc1ncc(/C(COc2cccc(C(F)(F)F)n2)=N/O)c(C2CCN(C(=O)Nc3c(F)cccc3F)CC2)n1 [Compound N26, N-(2,6-difluorophenyl)-4-{5-[(1Z)—N-hydroxy-2-{[6-(trifluoromethyl)pyridin-2-yl]oxy}ethanimidoyl]-2-methylpyrimidin-4-yl}piperidine-1-carboxamide]"
10,18.2,"CNC(COc1cccc(C(F)(F)F)n1)c1cnc(N)nc1C1CCN(C(=O)Nc2c(F)cccc2F)CC1 (centres unmarked) [Compound N27, 4-{2-Amino-5-[1-(methylamino)-2-{[6-(trifluoromethyl)pyridin-2-yl]oxy}ethyl]pyrimidin-4-yl}-N-(2,6-difluorophenyl)piperidine-1-carboxamide]"
11,71,"CC(=O)N1CCC(NC(COc2cccc(C(F)(F)F)n2)c2cnc(C)nc2C2CCN(C(=O)Nc3c(F)cccc3F)CC2)CC1 (centres unmarked) [Compound N28, 4-[5-(1-[(1-Acetylpiperidin-4-yl)amino]-2-{[6-(trifluoromethyl)pyridin-2-yl]oxy}ethyl)-2-methylpyrimidin-4-yl]-N-(2,6-difluorophenyl)piperidine-1-carboxamide]"
12,10.9,"Cc1ncc(C(O)(CCO)COc2cccc(C(F)(F)F)n2)c(C2CCN(C(=O)Nc3c(F)cccc3F)CC2)n1 (centres unmarked) [Compound N30, N-(2,6-Difluorophenyl)-4-{5-[1,3-dihydroxy-1-({[6-(trifluoromethyl)pyridin-2-yl]oxy}methyl)propyl]-2-methylpyrimidin-4-yl}piperidine-1-carboxamide]"
13,620,"Cc1ncc(C(O)(CCN)COc2cccc(C(F)(F)F)n2)c(C2CCN(C(=O)Nc3c(F)cccc3F)CC2)n1 (centres unmarked) [Compound N31, 4-(5-(4-Amino-2-hydroxy-1-(6-(trifluoromethyl)pyridin-2-yloxy)butan-2-yl)-2-methylpyrimidin-4-yl)-N-(2,6-difluorophenyl)piperidine-1-carboxamide]"
14,5.7,"Cc1ncc(C(O)(CO)COc2cccc(C(F)(F)F)n2)c(C2CCN(C(=O)Nc3c(F)cccc3F)CC2)n1 (centres unmarked) [Compound N32, N-(2,6-Difluorophenyl)-4-{5-[1,2-dihydroxy-1-({[6-(trifluoromethyl)pyridin-2-yl]oxy}methyl)ethyl]-2-methylpyrimidin-4-yl}piperidine-1-carboxamide]"
15,12.8,"Cc1ncc(C(O)(CN)COc2cccc(C(F)(F)F)n2)c(C2CCN(C(=O)Nc3c(F)cccc3F)CC2)n1 (centres unmarked) [Compound N34, 4-{5-[2-Amino-1-hydroxy-1-({[6-(trifluoromethyl)pyridin-2-yl]oxy}methyl)ethyl]-2-methylpyrimidin-4-yl}-N-(2,6-difluorophenyl)piperidine-1-carboxamide]"

# More lines, now with the values behind:
row,Compound,IC50 [nM]
1,"COc1nc(C)c(C(O)COc2ccnc(C(F)(F)F)n2)c(C2CCN(C(=O)Nc3c(F)cccc3F)CC2)n1 (centres unmarked) [Compound N8, N-(2,6-Difluorophenyl)-4-[5-(1-hydroxy-2-{[2-(trifluoromethyl)pyrimidin-4-yl]oxy}ethyl)-6-methyl-2-(methyloxy)pyrimidin-4-yl]piperidine-1-carboxamide]",4.8
2,"Nc1ncc(C(O)COc2ccnc(C(F)(F)F)n2)c(C2CCN(C(=O)Oc3c(F)cccc3F)CC2)n1 (centres unmarked) [Compound N13, 2,6-Difluorophenyl 4-[2-amino-5-(1-hydroxy-2-{[2-(trifluoromethyl)pyrimidin-4-yl]oxy}ethyl)pyrimidin-4-yl]piperidine-1-carboxylate]",6.8
3,"Cc1ncc(C(F)(F)COc2cccc(C(F)(F)F)n2)c(C2CCN(C(=O)Nc3c(F)cccc3C(F)(F)F)CC2)n1 [Compound N15, 4-[5-(1,1-Difluoro-2-{[6-(trifluoromethyl)pyridin-2-yl]oxy}ethyl)-2-methylpyrimidin-4-yl]-N-[2-fluoro-6-(trifluoromethyl)phenyl]piperidine-1-carboxamide]",10.9
4,"Nc1ncc(C(F)(F)COc2ccnc(C(F)(F)F)n2)c(C2CCN(C(=O)Nc3c(F)cccc3F)CC2)n1 [Compound N17, 4-[2-Amino-5-(1,1-difluoro-2-{[2-(trifluoromethyl)pyrimidin-4-yl]oxy}ethyl)pyrimidin-4-yl]-N-(2,6-difluorophenyl)piperidine-1-carboxamide]",6.2
5,"Cc1ncc(C(F)(F)CNc2ccnc(C(F)(F)F)n2)c(C2CCN(C(=O)Nc3c(F)cccc3F)CC2)n1 [Compound N18, N-(2,6-Difluorophenyl)-4-[5-(1,1-difluoro-2-{[2-(trifluoromethyl)pyrimidin-4-yl]amino}ethyl)-2-methylpyrimidin-4-yl]piperidine-1-carboxamide]",16.2
6,"Cc1ncc(C(F)(F)CNc2ccnc(C(F)(F)F)n2)c(C2CCN(C(=O)Cc3c(F)cccc3F)CC2)n1 [Compound N19, N-[2-(4-{1-[(2,6-Difluorophenyl)acetyl]piperidin-4-yl}-2-methylpyrimidin-5-yl)-2,2-difluoroethyl]-2-(trifluoromethyl)pyrimidin-4-amine]",6.5
7,"Cc1ncc(C(F)(F)CNc2nccc(C(F)(F)F)n2)c(C2CCN(C(=O)Nc3c(F)cccc3F)CC2)n1 [Compound N20, N-(2,6-Difluorophenyl)-4-[5-(1,1-difluoro-2-{[4-(trifluoromethyl)pyrimidin-2-yl]amino}ethyl)-2-methylpyrimidin-4-yl]piperidine-1-carboxamide]",21.2
8,"Cc1ncc(C(F)(F)CNc2nccc(C(F)(F)F)n2)c(C2CCN(C(=O)Cc3c(F)cccc3F)CC2)n1 [Compound N21, N-[2-(4-{1-[(2,6-Difluorophenyl)acetyl]piperidin-4-yl}-2-methylpyrimidin-5-yl)-2,2-difluoroethyl]-4-(trifluoromethyl)pyrimidin-2-amine]",14.2
9,"Nc1ncc(C(N)COc2cccc(C(F)(F)F)n2)c(C2CCN(C(=O)Oc3ccccc3F)CC2)n1 (centres unmarked) [Compound N29, 2-Fluorophenyl 4-[2-amino-5-(1-amino-2-{[6-(trifluoromethyl)pyridin-2-yl]oxy}ethyl)pyrimidin-4-yl]piperidine-1-carboxylate]",10000
10,"Cc1ncc(C(O)(CN=[N+]=[N-])COc2cccc(C(F)(F)F)n2)c(C2CCN(C(=O)Nc3c(F)cccc3F)CC2)n1 (centres unmarked) [Compound N33, 4-{5-[2-Azido-1-hydroxy-1-({[6-(trifluoromethyl)pyridin-2-yl]oxy}methyl)ethyl]-2-methylpyrimidin-4-yl}-N-(2,6-difluorophenyl)piperidine-1-carboxamide]",2.9
11,"Cc1ncc(C(O)(CN)COc2cccc(C(F)(F)F)n2)c(C2CCN(C(=O)Cc3c(F)cccc3F)CC2)n1 (centres unmarked) [Compound N35, 1-Amino-2-(4-{1-[(2,6-difluorophenyl)acetyl]piperidin-4-yl}-2-methylpyrimidin-5-yl)-3-{[6-(trifluoromethyl)pyridin-2-yl]oxy}propan-2-ol]",5.5

# From patent publication US10035790B2, “RORγ modulators” (BRISTOL-MYERS SQUIBB COMPANY, priority 2012, dated 2018)
